# According to PubChem BioAssay (NCI):
#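 Assay format: 96-well plates, 48-hour exposure. The concentration for 50% growth inhibition is given as GI50. The concentration for full growth arrest is given as TGI.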
# Assays:
# Experiment in all cases: DTP human tumour cell line panel, 48 h
# [1] = test system: HL-60(TB) leukemia
# [2] = test system: SK-MEL-2 melanoma
# [3] = test system: TK-10 renal
# [4] = test system: MALME-3M melanoma
# [5] = test system: PC-3 prostate
# [6] = test system: SK-MEL-5 melanoma
# [7] = test system: SF-539 CNS
# [8] = test system: LOX IMVI melanoma
# [9] = test system: T-47D breast
# [10] = test system: HCT-116 colon
# [11] = test system: SK-OV-3 ovarian
# [12] = test system: NCI-H522 lung
# [13] = test system: EKVX NSCLC
# [14] = test system: UACC-257 melanoma
# [15] = test system: SNB-75 CNS
# [16] = test system: DU-145 prostate
# [17] = test system: A498 renal
# [18] = test system: HCT-15 colon
# [19] = test system: RXF 393 renal
# [20] = test system: A549 NSCLC
# [21] = test system: K-562 leukemia
# [22] = test system: HOP-62 NSCLC
# [23] = test system: HT29 colon
# [24] = test system: OVCAR-3 ovarian
# [25] = test system: SK-MEL-28 melanoma
# [26] = test system: U251 CNS
# [27] = test system: OVCAR-4 ovarian
# [28] = test system: SNB-19 CNS
# [29] = test system: CCRF-CEM leukemia
# [30] = test system: BT-549 breast
# [31] = test system: HCC-2998 colon
# [32] = test system: SN12C renal
# [33] = test system: NCI-H226 lung
# [34] = test system: KM12 colon
# [35] = test system: SW-620 colon
# [36] = test system: MDA-MB-231 breast
# [37] = test system: MCF7 breast
# [38] = test system: MDA-MB-435
# [39] = test system: SF-268 CNS
# [40] = test system: COLO 205 colon
# [41] = test system: NCI-H23 lung
# [42] = test system: UO-31 renal
# [43] = test system: HS 578T breast
# [44] = test system: OVCAR-8 ovarian
# [45] = test system: ACHN renal
# [46] = test system: IGROV1 ovarian
# [47] = test system: SF-295 CNS
# [48] = test system: NCI/ADR-RES ovarian
# [49] = test system: CAKI-1 renal
# [50] = test system: HOP-92 NSCLC
# [51] = test system: M14 melanoma
# [52] = test system: MOLT-4 leukemia
# [53] = test system: OVCAR-5 ovarian
# [54] = test system: UACC-62 melanoma
# [55] = test system: RPMI-8226 leukemia
# [56] = test system: 786-0 renal
# [57] = test system: NCI-H460 lung
structure (smiles),measurement,setting,value
CC(C)[C@H](N)C(=O)N1CCC[C@H]1B(O)O,GI50,[1],> 100 µM
same,TGI,[1],> 100 µM
same,GI50,[2],> 100 µM
same,TGI,[2],> 100 µM
same,GI50,[3],> 100 µM
same,TGI,[3],> 100 µM
same,GI50,[4],> 100 µM
same,TGI,[4],> 100 µM
same,GI50,[5],> 100 µM
same,TGI,[5],> 100 µM
same,GI50,[6],> 100 µM
same,TGI,[6],> 100 µM
same,GI50,[7],> 100 µM
same,TGI,[7],> 100 µM
same,GI50,[8],> 100 µM
same,TGI,[8],> 100 µM
same,GI50,[9],> 100 µM
same,TGI,[9],> 100 µM
same,GI50,[10],> 100 µM
same,TGI,[10],> 100 µM
same,GI50,[11],> 100 µM
same,TGI,[11],> 100 µM
same,GI50,[12],> 100 µM
same,TGI,[12],> 100 µM
same,GI50,[13],> 100 µM
same,TGI,[13],> 100 µM
same,GI50,[14],> 100 µM
same,TGI,[14],> 100 µM
same,GI50,[15],> 100 µM
same,TGI,[15],> 100 µM
same,GI50,[16],> 100 µM
same,TGI,[16],> 100 µM
same,GI50,[17],> 100 µM
same,TGI,[17],> 100 µM
same,GI50,[18],> 100 µM
same,TGI,[18],> 100 µM
same,GI50,[19],> 100 µM
same,TGI,[19],> 100 µM
same,GI50,[20],> 100 µM
same,TGI,[20],> 100 µM
same,GI50,[21],> 100 µM
same,TGI,[21],> 100 µM
same,GI50,[22],> 100 µM
same,TGI,[22],> 100 µM
same,GI50,[23],> 100 µM
same,TGI,[23],> 100 µM
same,GI50,[24],> 100 µM
same,TGI,[24],> 100 µM
same,GI50,[25],> 100 µM
same,TGI,[25],> 100 µM
same,GI50,[26],> 100 µM
same,TGI,[26],> 100 µM
same,GI50,[27],> 100 µM
same,TGI,[27],> 100 µM
same,GI50,[28],> 100 µM
same,TGI,[28],> 100 µM
same,GI50,[29],> 100 µM
same,TGI,[29],> 100 µM
same,GI50,[30],> 100 µM
same,TGI,[30],> 100 µM
same,GI50,[31],> 100 µM
same,TGI,[31],> 100 µM
same,GI50,[32],> 100 µM
same,TGI,[32],> 100 µM
same,GI50,[33],> 100 µM
same,TGI,[33],> 100 µM
same,GI50,[34],> 100 µM
same,TGI,[34],> 100 µM
same,GI50,[35],> 100 µM
same,TGI,[35],> 100 µM
same,GI50,[36],> 100 µM
same,TGI,[36],> 100 µM
same,GI50,[37],> 100 µM
same,TGI,[37],> 100 µM
same,GI50,[38],> 100 µM
same,TGI,[38],> 100 µM
same,GI50,[39],> 100 µM
same,TGI,[39],> 100 µM
same,GI50,[40],> 100 µM
same,TGI,[40],> 100 µM
same,GI50,[41],> 100 µM
same,TGI,[41],> 100 µM
same,GI50,[42],> 100 µM
same,TGI,[42],> 100 µM
same,GI50,[43],> 100 µM
same,TGI,[43],> 100 µM
same,GI50,[44],> 100 µM
same,TGI,[44],> 100 µM
same,GI50,[45],> 100 µM
same,TGI,[45],> 100 µM
same,GI50,[46],> 100 µM
same,TGI,[46],> 100 µM
same,GI50,[47],> 100 µM
same,TGI,[47],> 100 µM
same,GI50,[48],> 100 µM
same,TGI,[48],> 100 µM
same,GI50,[49],> 100 µM
same,TGI,[49],> 100 µM
same,GI50,[50],> 100 µM
same,TGI,[50],> 100 µM
same,GI50,[51],> 100 µM
same,TGI,[51],> 100 µM
same,GI50,[52],> 100 µM
same,TGI,[52],> 100 µM
same,GI50,[53],> 100 µM
same,TGI,[53],> 100 µM
same,GI50,[54],> 100 µM
same,TGI,[54],> 100 µM
same,GI50,[55],> 100 µM
same,TGI,[55],> 100 µM
same,GI50,[56],> 100 µM
same,TGI,[56],> 100 µM
same,GI50,[57],> 100 µM
same,TGI,[57],> 100 µM
